# Measurements as given in patent EP3928779A1 (Chugai Seiyaku Kabushiki Kaisha, priority 2014, dated 2016).
# Test system: rat small-intestinal brush border membrane vesicles
# Experiment: Inhibitory effect on 33PO4 uptake into rat small-intestinal brush border membrane vesicles (rapid filtration method)
# Assay type: biochemical
# Conditions: 33PO4 uptake into rat small-intestinal BBMVs; test compound 1 µM; reacted for 60 seconds
# Method in brief: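 Uptake of ^33PO4 was measured by rapid filtration and liquid scintillation counting of filter-retained vesicles, after quenching with ice-cold 110 mM NaCl/1 mM KH2PO4/10 mM HEPES pH 7.5. Vesicles were brush border membranes from the upper small intestine of female Wistar rats aged 4–5 weeks.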
row,Compound,Rate of uptake inhibition (%) (1 µM)
1,C[C@]12CCCN1N(Cc1cc(F)c(F)cc1F)C(=O)C(C(=O)Nc1cc(F)c(Br)c(F)c1)=C2O [Example 194],80
2,Cc1cccc(CN2C(=O)C(C(=O)Nc3cc(F)c(Br)c(F)c3)=C(O)[C@@]3(C)CCCN23)c1F [Example 195],76
3,C[C@]12CCCN1N(Cc1cc(F)c(F)c(F)c1)C(=O)C(C(=O)Nc1cc(F)c(Br)c(F)c1)=C2O [Example 197],82
4,C[C@]12CCCN1N(Cc1cccc(Cl)c1F)C(=O)C(C(=O)Nc1ccc(C(F)(F)F)cc1-c1ccc(C(F)(F)F)nc1)=C2O [Example 198],75
5,C[C@]12CCCN1N(Cc1ccc(F)cc1)C(=O)C(C(=O)Nc1ccc(C(F)(F)F)cc1-c1ccc(C(F)(F)F)nc1)=C2O [Example 199],79
6,C[C@]12CCCN1N(Cc1ccccc1F)C(=O)C(C(=O)Nc1ccc(C(F)(F)F)cc1-c1ccc(C(F)(F)F)nc1)=C2O [Example 200],80
7,C[C@]12CCCN1N(Cc1cccc(F)c1Cl)C(=O)C(C(=O)Nc1ccc(C(F)(F)F)cc1-c1ccc(C(F)(F)F)nc1)=C2O [Example 201],77
8,COc1cc(CN2C(=O)C(C(=O)Nc3ccc(C(F)(F)F)cc3-c3ccc(C(F)(F)F)nc3)=C(O)[C@@]3(C)CCCN23)cc(OC)c1 [Example 202],75
9,C[C@]12CCCN1N(Cc1c(F)cccc1F)C(=O)C(C(=O)Nc1ccc(C(F)(F)F)cc1-c1ccc(C(F)(F)F)nc1)=C2O [Example 203],91
10,C[C@]12CCCN1N(Cc1c(F)cccc1Cl)C(=O)C(C(=O)Nc1ccc(C(F)(F)F)cc1-c1ccc(C(F)(F)F)nc1)=C2O [Example 204],87
11,Cc1cccc(CN2C(=O)C(C(=O)Nc3ccc(C(F)(F)F)cc3-c3ccc(C(F)(F)F)nc3)=C(O)[C@@]3(C)CCCN23)c1F [Example 205],86
12,C[C@]12CCCN1N(Cc1cccc(F)c1)C(=O)C(C(=O)Nc1ccc(C(F)(F)F)cc1-c1ccc(C(F)(F)F)nc1)=C2O [Example 206],76
13,C[C@]12CCCN1N(Cc1ccccc1F)C(=O)C(C(=O)Nc1ccc(C(F)(F)F)cc1-c1cc(C(F)(F)F)ncn1)=C2O [Example 207],73
14,C[C@]12CCCN1N(Cc1ccc(F)cc1)C(=O)C(C(=O)Nc1ccc(C(F)(F)F)cc1-c1cc(C(F)(F)F)ncn1)=C2O [Example 208],90
15,C[C@]12CCCN1N(Cc1cccc(Cl)c1F)C(=O)C(C(=O)Nc1ccc(C(F)(F)F)cc1-c1cc(C(F)(F)F)ncn1)=C2O [Example 209],76
16,C[C@]12CCCN1N(Cc1c(F)cccc1Cl)C(=O)C(C(=O)Nc1ccc(C(F)(F)F)cc1-c1cc(C(F)(F)F)ncn1)=C2O [Example 210],71
17,C[C@]12CCCN1N(Cc1cc(Cl)ccc1F)C(=O)C(C(=O)Nc1ccc(C(F)(F)F)cc1-c1cc(C(F)(F)F)ncn1)=C2O [Example 211],72
18,C[C@]12CCCN1N(Cc1c(F)cccc1F)C(=O)C(C(=O)Nc1ccc(C(F)(F)F)cc1-c1cc(C(F)(F)F)ncn1)=C2O [Example 212],98
19,C[C@]12CCCN1N(Cc1cc(F)cc(F)c1)C(=O)C(C(=O)Nc1ccc(C(F)(F)F)cc1-c1cc(C(F)(F)F)ncn1)=C2O [Example 213],79
20,C[C@]12CCCN1N(Cc1ccc(F)c(F)c1)C(=O)C(C(=O)Nc1ccc(C(F)(F)F)cc1-c1cc(C(F)(F)F)ncn1)=C2O [Example 214],91
21,Cc1cccc(CN2C(=O)C(C(=O)Nc3ccc(C(F)(F)F)cc3-c3cc(C(F)(F)F)ncn3)=C(O)[C@@]3(C)CCCN23)c1F [Example 215],86
22,C[C@]12CCCN1N(Cc1ccccc1C#N)C(=O)C(C(=O)Nc1cc(F)c(Br)c(F)c1)=C2O [Example 218],82
23,C[C@]12CCCN1N(Cc1ccccc1Cl)C(=O)C(C(=O)Nc1cc(F)c(Br)c(F)c1)=C2O [Example 219],95
24,C[C@]12CCCN1N(Cc1cccc(C#N)c1)C(=O)C(C(=O)Nc1cc(F)c(Br)c(F)c1)=C2O [Example 220],96
25,C[C@]12CCCN1N(Cc1cccc(Cl)c1)C(=O)C(C(=O)Nc1cc(F)c(Br)c(F)c1)=C2O [Example 221],82
26,C[C@]12CCCN1N(Cc1ccc(C#N)cc1)C(=O)C(C(=O)Nc1cc(F)c(Br)c(F)c1)=C2O [Example 222],97

row,Compound,Rate of uptake inhibition (%) (1 µM)
1,C[C@]12CCCN1N(Cc1ccc(Cl)cc1)C(=O)C(C(=O)Nc1cc(F)c(Br)c(F)c1)=C2O [Example 223],77
2,"C[C@]12CCCN1N(CCCC(F)(F)F)C(=O)C(C(=O)Nc1ccc(C(F)(F)F)cc1-c1cc(C(F)(F)F)ncn1)=C2O [Example 234, (4aR)-4-Hydroxy-4a-methyl-2-oxo-1-(4,4,4-trifluorobutyl)-N-[4-(trifluoromethyl)-2-[6-(trifluoromethyl)pyrimidin-4-yl]henyl]-6,7-dihydro-5H-pyrrolo[1,2-b]pyridazine-3-carboxamide]",73
3,"CCOC(=O)CCCCCCN1C(=O)C(C(=O)Nc2ccc(C(F)(F)F)cc2-c2ccc(C(F)(F)F)nc2)=C(O)[C@@]2(C)CCCN12 [Example 235, Ethyl 7-[(4aR)-4-hydroxy-4a-methyl-2-oxo-3-[[4-(trinuoromethyl)-2-[6-(trifluoromethyl)pyridin-3-yl]phenyl]carbamoyl]-6,7-dihydro-5H-pyrrolo[1,2-b]pyridazin-1-yl]heptanoate]",65
4,"COCCOCCOCCCCCCCCN1C(=O)C(C(=O)Nc2ccc(C(F)(F)F)cc2-c2cc(C(F)(F)F)ncn2)=C(O)[C@@]2(C)CCCN12 [Example 236, (4aR)-4-Hydroxy-1-[8-[2-(2-methoxyethoxy)ethoxy]octyl]-4a-methyl-2-oxo-N-[4-(trifluoromethyl)-2-[6-(trifluoromethyl)pyrimidine-4-yl]phenyl]-6,7-dihydro-5H-pyrrolo[1,2-b]pyridazine-3-carboxamide]",60
5,CN1[C@@H](C(C)(C)C)C(O)=C(C(=O)Nc2ccc(Cl)cc2-c2cc(C(F)(F)F)ncn2)C(=O)N1Cc1cccc(F)c1F [Example 237],51
6,CN1[C@@H](C(C)(C)C)C(O)=C(C(=O)Nc2ccc(C(F)(F)F)cc2-c2ccc(C(F)(F)F)nc2)C(=O)N1Cc1cccc(F)c1F [Example 238],47
7,CN1[C@@H](C(C)(C)C)C(O)=C(C(=O)Nc2ccc(Cl)cc2-c2ccc(C(F)(F)F)nc2)C(=O)N1Cc1cccc(F)c1F [Example 239],48
8,CN1[C@@H](C(C)(C)C)C(O)=C(C(=O)Nc2cc(F)c(Br)c(F)c2)C(=O)N1Cc1cccc(F)c1F [Example 240],72
9,Cc1nc(NC(=O)C2=C(O)[C@H](C(C)(C)C)N(C)N(Cc3cccc(F)c3F)C2=O)ccc1Br [Example 241],86
10,CN1[C@@H](C(C)(C)C)C(O)=C(C(=O)Nc2ccc(Br)c(C(F)(F)F)n2)C(=O)N1Cc1cccc(F)c1F [Example 242],69
11,CN1[C@@H](C(C)(C)C)C(O)=C(C(=O)Nc2ccc(Br)c(C(F)(F)F)c2)C(=O)N1Cc1cccc(F)c1F [Example 243],63
12,CN1[C@@H](C(C)(C)C)C(O)=C(C(=O)Nc2cccc(C(F)(F)F)n2)C(=O)N1Cc1cccc(F)c1F [Example 244],71
13,CCN1[C@@H](C(C)(C)C)C(O)=C(C(=O)Nc2ccc(Cl)cc2-c2ccc(C(F)(F)F)nc2)C(=O)N1Cc1cccc(F)c1F [Example 245],40
14,CCN1[C@@H](C(C)(C)C)C(O)=C(C(=O)Nc2cc(F)c(Br)c(F)c2)C(=O)N1Cc1cccc(F)c1F [Example 246],52
15,CC(C)(C)[C@H]1C(O)=C(C(=O)Nc2ccc(Cl)cc2-c2ccc(C(F)(F)F)nc2)C(=O)N(Cc2cccc(F)c2F)N1CC(F)(F)F [Example 247],51
16,CC(C)(C)[C@H]1C(O)=C(C(=O)Nc2cc(F)c(Br)c(F)c2)C(=O)N(Cc2cccc(F)c2F)N1CC(F)(F)F [Example 248],45
17,CC(C)[C@@H]1C(O)=C(C(=O)Nc2ccc(C(F)(F)F)cc2-c2cc(C(F)(F)F)ncn2)C(=O)N(Cc2cccc(F)c2F)N1C [Example 249],50
18,CC(C)[C@@H]1C(O)=C(C(=O)Nc2ccc(Cl)cc2-c2cc(C(F)(F)F)ncn2)C(=O)N(Cc2cccc(F)c2F)N1C [Example 250],52
19,CC(C)[C@@H]1C(O)=C(C(=O)Nc2ccc(Cl)cc2-c2ccc(C(F)(F)F)nc2)C(=O)N(Cc2cccc(F)c2F)N1C [Example 251],43
20,CC(C)[C@H]1C(O)=C(C(=O)Nc2ccc(C(F)(F)F)cc2-c2cc(C(F)(F)F)ncn2)C(=O)N(Cc2cccc(F)c2F)N1C [Example 252],53
21,CC(C)[C@H]1C(O)=C(C(=O)Nc2ccc(C(F)(F)F)cc2-c2ccc(C(F)(F)F)nc2)C(=O)N(Cc2cccc(F)c2F)N1C [Example 253],40
22,CC(C)[C@H]1C(O)=C(C(=O)Nc2cc(F)c(Br)c(F)c2)C(=O)N(Cc2cccc(F)c2F)N1C [Example 254],58
23,CN1N(Cc2cccc(F)c2F)C(=O)C(C(=O)Nc2ccc(Cl)cc2-c2cc(C(F)(F)F)ncn2)=C(O)C12CCC2 [Example 255],80
24,CN1N(Cc2cccc(F)c2F)C(=O)C(C(=O)Nc2ccc(Cl)cc2-c2ccc(C(F)(F)F)nc2)=C(O)C12CCC2 [Example 256],79
25,CN1N(Cc2cccc(F)c2F)C(=O)C(C(=O)Nc2cc(F)c(Br)c(F)c2)=C(O)C12CCC2 [Example 257],71
